From publication PMC4259358, “Functional Characterization of Nuclear Localization and Export Signals in Hepatitis C Virus Proteins and Their Role in the Membranous Web” (PLoS ONE, 2014)
Ends that are not written are not given here.

How the values were obtained:
XPO1 (CRM1) = assay: HCV genotype 1 peptide array probed with Huh7.5 cell lysate; type: binding; details: array of 15 residue peptides (8 residue overlaps), Huh7.5 lysate, anti-XPO1 antibody; a peptide bound
Description: (§1) However, various HCV proteins contain putative NLSs and NESs, [41], [53]. To identify potential interactions between cellular NTFs and HCV proteins, we designed a peptide array spanning the entire HCV genotype 1 consensus polyprotein sequence. These arrays were incubated with or without cell lysates and then probed using specific antibodies for components of the nuclear transport machinery. We detected binding of IPOA5 (importin α5/kap α1), IPO5 (importin β3/kap β3) and XPO1 (CRM1), but not IPO1 (importin β1/kap β1), to eleven distinct regions within HCV proteins (Fig. 1A, Table 1). All of the antibodies were also tested by western blotting of cell lysates to validate that they detected the corresponding NTF (Fig. 1B).
(§2) Figure 1 Identification of sequences within the HCV polyprotein that bind nuclear transport factors. (A) HCV genotype 1 peptide arrays consisting of 15 residue peptides (with 8 residue overlaps) spanning the complete HCV polypeptide were incubated with Huh7.5 cells lysates. Bound NTFs were detected using antibodies specific for the indicated NTF. Control peptide arrays were incubated with only NTF-specific antibodies. The different colored regions of the array represent peptides derived from different HCV proteins (see schematic). The last four peptides on the array are additional sequences which some of the HCV strains have in their polyproteins at the C terminus. (B) The same lysate used to probe the peptide arrays was also analyzed by western blotting to detect the indicated NTFs and assess the specificities of the antibodies. (C) Schematic summary of the localization of the NTF binding sites on the indicated HCV proteins.
(§3) A consensus sequence of HCV Genotype 1 polyprotein was used to design consecutive fifteen amino-acid residue peptides with eight residue overlaps along the complete polyprotein sequence. Peptides were synthesised by Intavis Bioanalytical Instruments (Koeln, Germany) using a CelluSpots peptide array synthesis technology. Peptide arrays were incubated in blocking buffer (TBS containing 0.05% tween 20 (v/v) and 10% skim milk (g/v)) overnight at 4°C on a gentle shaker. Following the blocking, the peptide arrays were washed three times with washing buffer (TBS containing 0.05% tween 20 (v/v)) for 5 min at room temperature on a gentle shaker. The peptide arrays were then incubated for 4 h with cell lysate from two T-75 flasks of fully confluent cells lysed by lysis buffer (10 mM Tris-HCl, pH 7.5, 150 mM NaCl, 2 mM EDTA, 0.1% Triton-X100, 1 mM PMSF, 2 µg/ml aprotinin, 2 µg/ml leupeptin and 0.1 units/µl RNasin) mixed with blocking buffer (ratio 1∶1 v/v) and incubated at room temperature on a gentle shaker. Following this incubation, peptide arrays were rinsed with washing buffer for 30 sec and then washed five times in washing buffer and each wash lasted for 5 min at room temperature on a gentle shaker. Following washing, the peptide arrays were incubated with the primary antibody as indicated in Fig. 1 (1∶100 dilution) for 4 h at room temperature on a gentle shaker. Arrays were then rinsed, washed as described above, and incubated with a complementary HRP conjugated secondary antibody (1∶1000) for 2 h at room temperature on a gentle shaker. The peptide arrays were then rinsed and washed as described above followed by initiation of HRP chemiluminescence with ECL detection reagent (GE Healthcare, RPN2106) and the signal was detected using Fuji RX film (Fujifilm, 47410 08399).

[1] = system: IPO5 (importin β3/kap β3); assay: as above; type: binding; details: array of 15 residue peptides (8 residue overlaps), Huh7.5 lysate, anti-IPO5 antibody; a peptide bound
Description: as §1, §2, §3

[2] = system: IPOA5 (importin α5/kap α1); assay: as above; type: binding; details: array of 15 residue peptides (8 residue overlaps), Huh7.5 lysate, anti-IPOA5 antibody; a peptide bound
Description: as §1, §2, §3

HEK293T cells = assay: Localization of nuclear transport signal-double GFP reporter in HEK293T cells; type: cell-based; design: key: +++ for strong; ++ for moderate; + for weak; − for no localization; details: double GFP cargo, 24 h post transfection, fluorescence quantified with ImageJ (S6, S7 Figures); NES/SEN on SV40 NLS double GFP
Source text: To determine whether NTF binding sites found in the HCV proteins were functional nuclear transport signals, we constructed reporter proteins each consisting of one of the HCV proteins NTF binding sites followed by two C-terminal, tandemly repeated GFP molecules. The double GFP moieties were required to keep the reporter from entering the nucleus, since a single GFP is small enough to diffuse freely through NPCs, [35]. As controls, constructs containing the reversed amino-acid residue sequence of the potential NLS (SLN) were also examined using the double GFP reporter assay (S5 Figure). These SLN reporters were predicted to not accumulate in the nucleoplasm. In addition, reporters to examine the functionality of the potential XPO1 binding domains were also constructed. These reporters consist of an SV40 NLS and a double GFP molecule followed by one of the various potential NESs at the C-terminus (S5 Figure). In the absence of a functional NES, this reporter will accumulate in the nucleus. However, a functional NES is predicted to export the reporter, leading to increased steady-state levels of the reporter in the cytoplasm.
Figure 4 Functionality of the putative nuclear transport signals in cells. Cells were transfected by the vectors encoding a nuclear transport reporter consisting of a tandemly repeated double GFP fused to the indicated C-terminal nuclear transport signal (panels A-N). At 24 h following transfection, cells were fixed and stained with Hoechst to visualize the nucleus. Cells were examined using a Zeiss inverted Axiovert 200 M microscope to assess the localization of the GFP (green) and its relationship to the nucleus (blue). A hashed yellow square demarcates the magnified area shown in the right-most image of each panel. Fluorescent intensity was quantified using ImageJ v. […] Analysis of the reverse sequences of each transport signal as well as the mutant SV40 NLS was also performed and the results are shown in S7 Figure.
Nuclear transport signals-double GFP constructs were transfected into HEK293T cells using lipofectamine 2000. At 24 h post transfection cells were fixed, stained, and visualized for localization of the GFP. For detailed information see S1 Methods.
Nuclear transport signal-double GFP constructs were transfected into HEK293T cells using lipofectamine 2000 reagent (Invitrogen, 11668019). At 24 h post transfection cells were fixed with 3.76% formaldehyde at room temperature (Sigma, F8775-500ML) for 8 min then permeabilized in 0.2% Triton X-100 (VWR, CA97062-208) for 2 min. Cells were washed three times with X1 PBS and were stained with Hoechst 1:5000 in X1 PBS for 5 min followed by three washes with X1 PBS. The cells were visualized using a Zeiss inverted Axiovert 200M microscope with a 20x/0.8 objective lens to examine localization of the GFP. At least ten random fields of cells were imaged for each combination. Channels were merged using ImageJ software (National Institutes of Health). Photoshop Elements 10 (Adobe) software was used to adjust brightness and contrast levels for individual images and to assemble images into figures.

IPO5 = target: T1, IPO5 (Homo sapiens, UniProt O00410); assay: biochemical; type: binding
T1 construct: Expression and purification of full length IPOA5, IPO5 were perform according to methods described previously; His tag; made in house; host or cells: Escherichia coli BL21(DE3), pET21 vector
T1 sequence (O00410 whole entry): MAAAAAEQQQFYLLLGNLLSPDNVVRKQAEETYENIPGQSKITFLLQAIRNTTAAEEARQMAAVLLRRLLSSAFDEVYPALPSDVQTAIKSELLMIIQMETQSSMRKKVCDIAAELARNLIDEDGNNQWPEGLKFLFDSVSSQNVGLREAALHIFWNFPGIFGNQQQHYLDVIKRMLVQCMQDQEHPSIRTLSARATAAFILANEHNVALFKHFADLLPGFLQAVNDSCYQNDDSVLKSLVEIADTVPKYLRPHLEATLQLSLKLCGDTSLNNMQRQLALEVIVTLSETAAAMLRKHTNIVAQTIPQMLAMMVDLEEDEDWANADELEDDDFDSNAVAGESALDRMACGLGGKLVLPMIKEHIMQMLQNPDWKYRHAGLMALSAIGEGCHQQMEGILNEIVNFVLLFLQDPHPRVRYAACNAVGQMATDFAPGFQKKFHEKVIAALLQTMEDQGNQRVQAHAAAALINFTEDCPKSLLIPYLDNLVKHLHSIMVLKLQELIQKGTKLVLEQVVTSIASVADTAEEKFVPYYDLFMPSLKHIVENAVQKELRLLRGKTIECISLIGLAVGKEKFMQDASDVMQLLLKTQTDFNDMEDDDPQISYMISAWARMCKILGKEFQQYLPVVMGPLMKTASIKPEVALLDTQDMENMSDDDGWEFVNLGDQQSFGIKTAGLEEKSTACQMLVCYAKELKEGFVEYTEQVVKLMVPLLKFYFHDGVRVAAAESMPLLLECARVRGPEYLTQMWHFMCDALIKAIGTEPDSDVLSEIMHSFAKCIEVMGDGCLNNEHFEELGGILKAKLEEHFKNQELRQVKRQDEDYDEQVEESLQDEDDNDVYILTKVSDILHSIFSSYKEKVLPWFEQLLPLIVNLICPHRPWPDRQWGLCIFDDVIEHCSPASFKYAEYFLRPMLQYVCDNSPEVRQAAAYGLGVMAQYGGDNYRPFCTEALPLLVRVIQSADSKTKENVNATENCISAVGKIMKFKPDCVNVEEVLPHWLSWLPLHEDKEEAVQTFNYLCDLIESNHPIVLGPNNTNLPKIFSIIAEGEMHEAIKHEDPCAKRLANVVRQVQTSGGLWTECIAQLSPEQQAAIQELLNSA

IPOA5 = target: T2, IPOA5 (Homo sapiens, UniProt P52294); assay: biochemical; type: binding
T2 construct: Expression and purification of full length IPOA5, IPO5 were perform according to methods described previously; His tag; made in house; host or cells: Escherichia coli BL21(DE3), pET21 vector
T2 sequence (P52294 whole entry): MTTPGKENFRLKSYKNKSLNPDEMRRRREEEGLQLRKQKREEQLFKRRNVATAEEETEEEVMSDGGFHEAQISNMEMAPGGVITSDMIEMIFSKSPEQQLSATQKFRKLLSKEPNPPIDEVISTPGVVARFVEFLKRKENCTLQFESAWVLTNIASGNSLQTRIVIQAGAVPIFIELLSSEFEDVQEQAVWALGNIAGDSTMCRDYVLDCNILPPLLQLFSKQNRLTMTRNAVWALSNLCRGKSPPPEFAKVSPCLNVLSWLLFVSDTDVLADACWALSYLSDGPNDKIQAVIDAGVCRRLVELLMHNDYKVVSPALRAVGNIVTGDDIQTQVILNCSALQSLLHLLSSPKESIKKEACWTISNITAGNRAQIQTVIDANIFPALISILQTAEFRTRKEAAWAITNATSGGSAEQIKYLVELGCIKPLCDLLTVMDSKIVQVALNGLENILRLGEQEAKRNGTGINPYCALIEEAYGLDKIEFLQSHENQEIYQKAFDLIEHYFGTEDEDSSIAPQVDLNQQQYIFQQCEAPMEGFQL

JFH-1 HCV = type: cell-based, Hepatitis C virus; details: Huh7.5, JFH-1, 4 h at 4°C then 37°C; added at 2 h intervals; % NS5A-positive cells at 72 h PTS; Ezetimibe 30 µM, LMB 18 nM, BMS-986094 10 nM, DGAT 1 inhibitor 10 nM; n = 3
Description: Huh7.5 cells were infected with JFH-1 HCV and maintained at 4°C for 4 hours (h) to synchronize the cells before shifting the temperature to 37°C. Post temperature shift (PTS), infected cells were incubated for various lengths of times prior to the addition of peptides or known inhibitors of HCV at 2 h intervals. […] We deliberately selected the final time point of 72 h PTS to reflect the number of cells infected by a second round of infection. […] This would be reflected by the number of cells infected in the second round as measured at 72 h PTS.
In order to elucidate the time points in infection when the nuclear transport signals bearing peptides are functional, cells were synchronously infected and treated with the indicated peptides. Each time point (2 h intervals) represents a culture treated with the indicated reagent at the specified time post temperature shift (PTS) and initiation of HCV infection. […] (A) Known inhibitors of HCV production (Ezetimibe (30 µM), LMB (18 nM), BMS-986094 (10 nM) and DGAT 1 inhibitor (10 nM)) and control (Pen peptide 100 µM, DMSO 2%, no treatment, and no infection) were examined. […] Error bars represent ± standard deviation, n = 3.
For the time of addition experiments, cells were seeded at a density of 6.25×10^4 cells/well in a 96-well plate and infected with 0.1 genomic equivalents of serially passaged JFH-1 virus on ice: cells then were incubated at 4°C for 4 h.
Briefly, Huh7.5 cells were infected as described above and the test compounds were added to different wells at different time points before the temperature shift (-4 h and -2 h) and every 2 h after the temperature shift (0, 2, 4,…, 48 h). […] The infection levels were calculated by counting infected and total cells numbers in ten random fields for each condition. The non-treated cell infection level was normalized to 100% and all other infections were calculated based on that normalization.

## FLLALLSCITVPVSA [A23, HCV genotype 1 array peptide, core residues 177-191]
XPO1 (CRM1)
  Binding to XPO1: A23: 177-[…]-191

## IPKDRRSTGKAWGKP [A9, HCV genotype 1 array peptide, core residues 65-79]
[1]
  Binds to IPO5: A9: 65-[…]-79
[2]
  Binding to IPOA5: A9: 65-[…]-79

## VTRRRRPPPRQIKIWFQNRRMKWKK [NS5A SLN]
HEK293T cells
  Localization Cytoplasmic: +++
  Localization Nuclear: −

## PARRRGDKRRQIKIWFQNRRMKWKK [NS3 NLS 1]
IPO5
  Kd: 33.8 ± 5.6 nM

## RRRTVGLSESTISEA [M4]
[1]
  Binds to IPO5: M4: 2329-[…]-2343

## QPRGRRQPIPKDRRS [A8, HCV genotype 1 array peptide, core residues 57-71]
[1]
  Binds to IPO5: A8: 57-[…]-71
[2]
  Binding to IPOA5: A8: 57-[…]-71

## RHRSRNVGKVIDTLT [A15, HCV genotype 1 array peptide, core residues 113-127]
[1]
  Binds to IPO5: A15: 113-[…]-127

## CC[C@H](C)[C@H](NC(=O)[C@H](CCCCN)NC(=O)[C@@H](NC(=O)[C@H](CCC(N)=O)NC(=O)[C@H](CCCNC(=N)N)NC(=O)CNC(=O)[C@H](Cc1c[nH]c2ccccc12)NC(=O)[C@@H](NC(=O)[C@@H](NC(=O)[C@@H](NC(=O)[C@H](CCCCN)NC(=O)[C@H](CCCCN)NC(=O)[C@H](CCC(=O)O)NC(=O)[C@H](CCSC)NC(=O)[C@@H]1CCCN1C(=O)[C@H](CO)NC(=O)[C@H](Cc1ccccc1)NC(=O)[C@@H](NC(=O)[C@@H](NC(=O)[C@@H]1CCCN1)[C@@H](C)CC)[C@@H](C)CC)C(C)C)[C@@H](C)CC)C(C)C)[C@@H](C)CC)C(=O)N[C@@H](Cc1c[nH]c2ccccc12)C(=O)N[C@@H](Cc1ccccc1)C(=O)N[C@@H](CCC(N)=O)C(=O)N[C@@H](CC(N)=O)C(=O)N[C@@H](CCCNC(=N)N)C(=O)N[C@@H](CCCNC(=N)N)C(=O)N[C@@H](CCSC)C(=O)N[C@@H](CCCCN)C(=O)N[C@@H](Cc1c[nH]c2ccccc12)C(=O)N[C@@H](CCCCN)C(=O)N[C@@H](CCCCN)C(=O)O [NS2 NLS]
IPOA5
  Kd: 79.3 ± 3.89 nM

## PIIFSPMEKKVIVWG [F3]
[2]
  Binding to IPOA5: F3: 977-[…]-991

## MSTNPKPQRKTKRNT [A1, HCV genotype 1 array peptide, core residues 1-15]
[1]
  Binds to IPO5: A1: 1-[…]-15
[2]
  Binding to IPOA5: A1: 1-[…]-15

## LPGFPFSIFLLALLS [A22, HCV genotype 1 array peptide, core residues 169-183]
XPO1 (CRM1)
  Binding to XPO1: A22: 169-[…]-183

## GWVIVKKEMPSFIIPRQIKIWFQNRRMKWKK [NS2 SLN]
HEK293T cells
  Localization Cytoplasmic: +++
  Localization Nuclear: −

## VTRNADVIPARRRGD [F23]
[1]
  Binds to IPO5: F23: 1137-[…]-1151

## RKTKRNTNRRPEDVK [A2, HCV genotype 1 array peptide, core residues 9-23]
[1]
  Binds to IPO5: A2: 9-[…]-23
[2]
  Binding to IPOA5: A2: 9-[…]-23

## PARRRGDKRGALLSP [F24]
[1]
  Binds to IPO5: F24: 1145-[…]-1159

## RSQRRGRTTGRGRRQIKIWFQNRRMKWKK [NS3 NLS 2]
IPO5
  Kd: 35.8 ± 7.26 nM
IPOA5
  Kd: 36.6 ± 7.13 nM

## PRHRSRNVGKRQIKIWFQNRRMKWKK [Core NLS 4]
IPO5
  Kd: 105 ± 31.1 nM
IPOA5
  Kd: 518 ± 28.6 nM

## KVIDTLTCGFADLMG [A16, HCV genotype 1 array peptide, core residues 121-135]
XPO1 (CRM1)
  Binding to XPO1: A16: 121-[…]-135

## CC[C@H](C)[C@H](NC(=O)[C@H](CCCCN)NC(=O)[C@@H](NC(=O)[C@H](CCC(N)=O)NC(=O)[C@H](CCCNC(=N)N)NC(=O)[C@@H](NC(=O)[C@H](CCCCN)NC(=O)[C@H](CCCNC(=N)N)NC(=O)[C@H](CCCCN)NC(=O)[C@H](CCCCN)NC(=O)[C@H](CCCCN)NC(=O)[C@@H]1CCCN1)C(C)C)[C@@H](C)CC)C(=O)N[C@@H](Cc1c[nH]c2ccccc12)C(=O)N[C@@H](Cc1ccccc1)C(=O)N[C@@H](CCC(N)=O)C(=O)N[C@@H](CC(N)=O)C(=O)N[C@@H](CCCNC(=N)N)C(=O)N[C@@H](CCCNC(=N)N)C(=O)N[C@@H](CCSC)C(=O)N[C@@H](CCCCN)C(=O)N[C@@H](Cc1c[nH]c2ccccc12)C(=O)N[C@@H](CCCCN)C(=O)N[C@@H](CCCCN)C(=O)O [SV40 NLS, reference compound]
IPOA5
  Kd: 27.1 ± 4.23 nM

## TIFYQLWWILRALFLKYHPSLTLLILRQIKIWFQNRRMKWKK [NS2 SEN]
HEK293T cells
  Localization Cytoplasmic: −
  Localization Nuclear: +++

## SQRRGRTGRGRQGTY [H19]
[1]
  Binds to IPO5: H19: 1489-[…]-1503
[2]
  Binding to IPOA5: H19: 1489-[…]-1503

## PSWGPTDPRHRSRNV [A14, HCV genotype 1 array peptide, core residues 105-119]
[1]
  Binds to IPO5: A14: 105-[…]-119

## GVYLLPRRGPRLGVR [A5, HCV genotype 1 array peptide, core residues 33-47]
[1]
  Binds to IPO5: A5: 33-[…]-47
[2]
  Binding to IPOA5: A5: 33-[…]-47

## O=C1[C@H](CC[C@H](O)c2ccc(F)cc2)[C@@H](c2ccc(O)cc2)N1c1ccc(F)cc1 [Ezetimibe]
JFH-1 HCV
  time of addition at which the ability to inhibit HCV infection is lost: 4–10 h PTS

## PPPRRRRTVRQIKIWFQNRRMKWKK [NS5A NLS]
IPO5
  Kd: 32.3 ± 4.99 nM
IPOA5
  Kd: 7630 ± 259 nM

## KAPTPPPRRRRTVGL [M3]
[1]
  Binds to IPO5: M3: 2321-[…]-2335

## VPQDAVSRSQRRGRT [H18]
[1]
  Binds to IPO5: H18: 1481-[…]-1495
[2]
  Binding to IPOA5: H18: 1481-[…]-1495

## TLLGQCLWWLCYLLT [E10]
XPO1 (CRM1)
  Binding to XPO1: E10: 841-[…]-855
